The values that follow come from patent US11999727B2 (Tango Therapeutics, Inc., priority 2020, dated 2024).

The test system of test [1] is HAP1 MTAP-deleted cell line. In words: Viability assay, MTAP-deleted cell line. To be noted: Homo sapiens, HAP1, viability, HAP1 MTAP-deleted cell line; read-out: HAP1 MTAP deleted viability. Format: cell-based. An excerpt: Table 1 additionally indicates IC50 values in a viability assay for the MTAP-deleted cell line (column 10), indicating the effect of treatment with compound on cell survival.

In test [2] the test system is HAP1 MTAP-deleted cell line. In words: SDMA in-cell western assay, HAP1 MTAP-deleted. The class given is cell-based. The conditions noted are these: for IC50: Homo sapiens, HAP1, SDMA in-cell western, HAP1 MTAP-deleted, read-out: HAP 1 MTAP deleted IC50; for MTAP intact/deleted ratio: IC50 ratio HAP1 MTAP-intact / HAP1 MTAP-deleted, SDMA in-cell western. In short, it runs like this: (§1)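 Isogenic HAP1 pair: the MTAP-intact line expresses endogenous MTAP, and the deleted line is MTAP-null. Symmetric dimethylarginine was detected by in-cell western and IC50 values derived for each line.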

Test [3] addresses T1, PRMT5 (Homo sapiens, UniProt O14744).
T1 construct: purchased Viva (custom protein)
In words: PRMT5 biochemical IC50 assay with no cofactor. The conditions noted are these: PRMT5, no cofactor; read-out: No Cofactor/ rel IC50. An excerpt:
Table 1 indicates IC50 values (μM) against PRMT5 for exemplary compounds in the presence of SAM as cofactor, with no cofactor, and with MTA as cofactor, respectively (columns 4-6). […] Ki values can be calculated from the IC50 values as described in the Examples section. As detailed in the Examples section, for the assay performed in the presence of SAM, IC50=Ki×1.5 (Ki=IC50/1.5).

The target in test [4] is T1, PRMT5. In words: PRMT5 biochemical IC50 assay with MTA as cofactor. The conditions noted are these: PRMT5, MTA as cofactor; read-out: MTA IC50.
Test [5] addresses T1, PRMT5. In words: PRMT5 biochemical IC50 assay with SAM as cofactor. To be noted: PRMT5, SAM as cofactor; read-out: SAM IC50.
Test [6] deals with HAP1 MTAP-intact cell line. In words: SDMA in-cell western assay, HAP1 MTAP-intact. The class given is cell-based. The conditions noted are these: Homo sapiens, HAP1, SDMA in-cell western, HAP1 MTAP-intact; read-out: MTAP HAP1 intact IC50. In a few lines: as §1

Some results are limits rather than exact numbers.

T1 sequence (O14744 whole entry): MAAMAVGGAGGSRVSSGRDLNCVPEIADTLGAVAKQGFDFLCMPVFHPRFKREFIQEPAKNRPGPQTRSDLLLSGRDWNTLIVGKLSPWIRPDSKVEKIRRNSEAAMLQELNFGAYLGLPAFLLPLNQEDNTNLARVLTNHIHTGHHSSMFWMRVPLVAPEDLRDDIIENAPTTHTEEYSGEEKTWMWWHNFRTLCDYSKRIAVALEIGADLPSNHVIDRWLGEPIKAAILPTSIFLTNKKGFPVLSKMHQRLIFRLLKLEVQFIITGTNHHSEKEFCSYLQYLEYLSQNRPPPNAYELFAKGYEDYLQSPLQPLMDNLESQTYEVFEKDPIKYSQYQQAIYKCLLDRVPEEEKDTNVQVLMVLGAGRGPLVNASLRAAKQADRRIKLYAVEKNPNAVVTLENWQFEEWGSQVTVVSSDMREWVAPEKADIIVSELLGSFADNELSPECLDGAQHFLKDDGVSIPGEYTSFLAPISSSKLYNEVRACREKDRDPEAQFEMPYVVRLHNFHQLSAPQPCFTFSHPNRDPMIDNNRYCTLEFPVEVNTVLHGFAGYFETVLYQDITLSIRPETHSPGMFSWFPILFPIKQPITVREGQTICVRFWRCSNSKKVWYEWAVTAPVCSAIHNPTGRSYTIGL
T1 sequence (Q9BQA1 whole entry partner): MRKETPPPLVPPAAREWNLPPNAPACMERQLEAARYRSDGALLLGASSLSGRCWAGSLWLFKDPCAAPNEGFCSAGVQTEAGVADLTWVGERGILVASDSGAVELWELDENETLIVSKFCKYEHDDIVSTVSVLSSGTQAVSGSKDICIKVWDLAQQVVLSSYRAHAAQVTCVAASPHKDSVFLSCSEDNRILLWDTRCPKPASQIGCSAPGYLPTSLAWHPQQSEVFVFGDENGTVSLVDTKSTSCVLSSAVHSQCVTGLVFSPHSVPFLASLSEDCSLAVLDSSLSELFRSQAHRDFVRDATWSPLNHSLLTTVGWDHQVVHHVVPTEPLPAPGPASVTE

Take `C[C@H]1CCC(c2ccc3sc(C4CCOCC4)nc3c2)N(C(=O)C(=O)Nc2cnc(N)c(C3CC3)c2)C1` (single isomer, unassigned) [Compound 1258]: the IC50 in test [1] was below 1000 nM; in test [2] it was below 100 nM; in test [3], below 50 nM; in test [4] it was below 50 nM; in test [5] it was 50 to 500 nM; in test [6], 100 to 1000 nM. Also, the “MTAP intact/deleted ratio” value in test [2] is reported as “A (an IC50 ratio greater than or equal to 10 fold)”.

In the case of `CCc1cc(NC(=O)C(=O)N2C[C@@H](C)CC[C@@H]2c2ccc(N3CCN(C)[C@H](C)C3)nc2)cnc1N` (single isomer, unassigned) [Compound 1263], the IC50 was below 1000 nM in test [1]; below 100 nM in test [2]; above 500 nM in test [3]; below 50 nM in test [4]; 50 to 500 nM in test [5]; 100 to 1000 nM in test [6]. Further, in test [2], the “MTAP intact/deleted ratio” value is “A (an IC50 ratio greater than or equal to 10 fold)”.

As for `CCc1cc(NC(=O)C(=O)N2C[C@H](C)CC[C@H]2c2ccc(N3CCC4(CCCN(C)C4)CC3)cc2)cnc1N` (single isomer, unassigned) [Compound 1269], the IC50 in test [1] is 1000 to 10000 nM; in test [2], 100 to 1000 nM; in test [3], above 500 nM; in test [4] it was 50 to 500 nM; in test [5], above 500 nM; in test [6], above 1000 nM.

On to `CCc1cc(NC(=O)C(=O)N2C[C@@H](C)CC[C@@H]2c2ccc3nn([C@@H]4CCCN(C)C4)cc3c2)cnc1N` (single isomer, unassigned) [Compound 1270], for which the IC50 in test [1] was below 1000 nM; in test [2], below 100 nM; in test [3] it was 50 to 500 nM; in test [4] it was below 50 nM; in test [5], 50 to 500 nM; in test [6], 100 to 1000 nM. Moreover, the “MTAP intact/deleted ratio” value in test [2] was “A (an IC50 ratio greater than or equal to 10 fold)”.

With `CCc1cc(NC(=O)C(=O)N2C[C@@H](C)CC[C@@H]2c2ccc3nn([C@H]4CCCN(C)C4)cc3c2)cnc1N` (single isomer, unassigned) [Compound 1271], the IC50 was below 1000 nM in test [1]; below 100 nM in test [2]; below 50 nM in test [3]; below 50 nM in test [4]; 50 to 500 nM in test [5]; below 100 nM in test [6]. For the same compound, the “MTAP intact/deleted ratio” value in test [2] is reported as “B (an IC50 ratio greater than or equal to 3 fold but lower than 10 fold)”.

Take `CCc1cc(NC(=O)C(=O)N2C[C@@H](C)CC[C@@H]2c2cccc(C[C@H]3CCCCN3C)c2)cnc1N` (single isomer, unassigned) [Compound 1273]: the IC50 in test [1] is below 1000 nM; in test [2] it was below 100 nM; in test [3], below 50 nM; in test [4], below 50 nM; in test [5], 50 to 500 nM; in test [6] it was 100 to 1000 nM. The “MTAP intact/deleted ratio” value in test [2] is recorded as “A (an IC50 ratio greater than or equal to 10 fold)”.

As for `Cc1cc(NC(=O)C(=O)N2C[C@@H](C)[C@H](CC(C)C)C[C@@H]2c2ccc3scnc3c2)cnc1N` (single isomer, unassigned) [Compound 1284], the IC50 in test [1] is above 10000 nM; in test [2], above 1000 nM; in test [3], above 500 nM; in test [4], above 500 nM; in test [5] it was above 500 nM; in test [6] it was above 1000 nM.

For the compound `CCc1cc(NC(=O)C(=O)N2C[C@@H](C)[C@@H](OC)C[C@@H]2c2ccc3scnc3c2)cnc1N` (single isomer, unassigned) [Compound 1286], the IC50 in test [1] was below 1000 nM; in test [2], below 100 nM; in test [3], below 50 nM; in test [4], below 50 nM; in test [5] it was 50 to 500 nM; in test [6], 100 to 1000 nM. Moreover, the “MTAP intact/deleted ratio” value in test [2] is “A (an IC50 ratio greater than or equal to 10 fold)”.

For `CCc1cc(NC(=O)C(=O)N2C[C@@H](C)CC[C@@H]2c2ccc(N3CCN(C)[C@@H](C)C3)nc2)cnc1N` (single isomer, unassigned) [Compound 1289], the IC50 is below 1000 nM in test [1]; below 100 nM in test [2]; below 50 nM in test [3]; below 50 nM in test [4]; 50 to 500 nM in test [5]; 100 to 1000 nM in test [6]. For the same compound, in test [2], the “MTAP intact/deleted ratio” value is reported as “A (an IC50 ratio greater than or equal to 10 fold)”.

On to `Cc1cc(NC(=O)C(=O)N2C[C@H](C)CC[C@H]2c2cccc(C3CCN(C)CC3)c2)cnc1N` (single isomer, unassigned) [Compound 1291], for which the IC50 in test [1] is above 10000 nM; in test [2], 100 to 1000 nM; in test [3] it was above 500 nM; in test [4] it was above 500 nM; in test [5], above 500 nM; in test [6], above 1000 nM.

Turning to `Cc1cc(NC(=O)C(=O)N2C[C@@H](C)[C@@H](OC(C)C)C[C@@H]2c2ccccc2)cnc1N` (single isomer, unassigned) [Compound 1302], the IC50 was above 10000 nM in test [1]; above 1000 nM in test [2]; above 500 nM in test [3]; above 500 nM in test [4]; above 500 nM in test [5]; above 1000 nM in test [6].

As to `C[C@@H]1CN(C(=O)C(=O)Nc2cnc(N)c(C3CC3)c2)[C@@H](c2ccc3scnc3c2)CC1(F)F` (single isomer, unassigned) [Compound 1307], the IC50 was below 1000 nM in test [1]; below 100 nM in test [2]; 50 to 500 nM in test [3]; 50 to 500 nM in test [4]; above 500 nM in test [5]; above 1000 nM in test [6]. The “MTAP intact/deleted ratio” value in test [2] was “A (an IC50 ratio greater than or equal to 10 fold)”.

Take `CCc1cc(NC(=O)C(=O)N2C[C@@H](C)CC[C@@H]2c2ccc3sc([C@@H]4CCN(C)C4)nc3c2)cnc1N` (single isomer, unassigned) [Compound 1308]: the IC50 in test [1] is below 1000 nM; in test [2] it was below 100 nM; in test [3] it was below 50 nM; in test [4], below 50 nM; in test [5] it was 50 to 500 nM; in test [6] it was below 100 nM. Also, the “MTAP intact/deleted ratio” value in test [2] is reported as “A (an IC50 ratio greater than or equal to 10 fold)”.

With `Cc1cc(NC(=O)C(=O)N2C[C@@H](C)CC[C@@H]2c2ccc3sc(-c4cccnc4)nc3c2)cnc1N` (single isomer, unassigned) [Compound 1310], the IC50 in test [1] is below 1000 nM; in test [2], below 100 nM; in test [3], below 50 nM; in test [4], below 50 nM; in test [5], 50 to 500 nM; in test [6], below 100 nM. For the same compound, the “MTAP intact/deleted ratio” value in test [2] is “A (an IC50 ratio greater than or equal to 10 fold)”.

On to `CCc1cc(NC(=O)C(=O)N2C[C@@H](C)CC[C@@H]2c2ccc3sc([C@H]4CCN(C)C4)nc3c2)cnc1N` (single isomer, unassigned) [Compound 1311], for which the IC50 is below 1000 nM in test [1]; below 100 nM in test [2]; below 50 nM in test [3]; below 50 nM in test [4]; below 50 nM in test [5]; below 100 nM in test [6]. In test [2], the “MTAP intact/deleted ratio” value is “A (an IC50 ratio greater than or equal to 10 fold)”.

With `C[C@H]1CC[C@H](c2ccc3sc(C4CCN(C)CC4)nc3c2)N(C(=O)C(=O)Nc2cnc(N)c([C@H]3CCOC3)c2)C1` (single isomer, unassigned) [Compound 1312], the IC50 in test [1] is below 1000 nM; in test [2] it was below 100 nM; in test [3] it was below 50 nM; in test [4], below 50 nM; in test [5], below 50 nM; in test [6] it was above 1000 nM.

Regarding `Cc1nc2cc([C@H]3CC[C@H](C)CN3C(=O)C(=O)Nc3cnc(N)c(C4CC4)c3)ccc2s1` (single isomer, unassigned) [Compound 1313], the IC50 was below 1000 nM in test [1]; below 100 nM in test [2]; below 50 nM in test [3]; below 50 nM in test [4]; 50 to 500 nM in test [5]; 100 to 1000 nM in test [6]. Besides, in test [2], the “MTAP intact/deleted ratio” value is reported as “A (an IC50 ratio greater than or equal to 10 fold)”.

For the compound `CCc1cc(NC(=O)C(=O)N2C[C@@H](C)CC[C@@H]2c2ccc3sc([C@@H](C)N(C)C)nc3c2)cnc1N` (single isomer, unassigned) [Compound 1316], the IC50 in test [1] was below 1000 nM; in test [2], below 100 nM; in test [3], below 50 nM; in test [4], below 50 nM; in test [5] it was 50 to 500 nM; in test [6], below 100 nM. Besides, the “MTAP intact/deleted ratio” value in test [2] is “A (an IC50 ratio greater than or equal to 10 fold)”.

Consider `Cc1cc(NC(=O)C(=O)N2C[C@@H](C)CC[C@@H]2c2ccc(CCN(C)C)cc2)cnc1N` (single isomer, unassigned) [Compound 1322], for which the IC50 was above 10000 nM in test [1]; above 1000 nM in test [2]; above 500 nM in test [3]; above 500 nM in test [4]; above 500 nM in test [5]; above 1000 nM in test [6].
